What was measured:
[1] = system: model of sarcopenia caused by aging; assay: Aging animal model, 22-month-old mice (Experimental Example 2); type: in vivo, C57BL/6J mice
Source text: For an experimental group in the present invention, oxiracetam having a structure of Formula 1 was purchased from Tokyo Chemical Industry (Japan; Product No. 00398, CAS RN:62613-82-5, purity: 96%) and used.
(§1) As a model of sarcopenia caused by aging, 22-month-old male C57BL/6J mice were used. Until the day of the experiment, general feed (EEGJ30060: Cargill Agri Purina, Seongnam, Korea) and water were sufficiently supplied to the experimental animals, and the animals were acclimated for 1 week under an environment of a temperature of 23±2° C., a humidity of 55±10%, and a light-dark cycle of 12 hours-12 hours and used in the experiment.
The animals were randomly divided into groups of 10 animals, such as a control (vehicle, n=10), and 30, 100, and 300 mg/kg/day oxiracetam-administered groups (n=10 per concentration). To the oxiracetam-administered group, oxiracetam was orally administered using a Zonde needle for 90 days once a day at a dose of 30, 100, or 300 mg/kg/day. During the same period, no drug was administered to the control group, and 100 μL of normal saline was orally administered at a time.
To measure grip strength, a grip strength test was performed. The maximum force presented when the forelimbs of an animal model of each group could no longer hold the rod by pulling the tail horizontally while holding the tail of the animal model and holding the rod of a device with both front paws was considered to be grip strength (N). The grip strength was measured once every 3 days, and after repeating five measurements at one time, the average value was shown. Grip strength adaptation training was performed at least three times before drug administration.
The lean body mass of the gastrocnemius muscle (GS) and the lean body mass of the tibialis anterior (TA) for each group was measured every 7 days. Specifically, animal models of each group were anesthetized using 3% isoflurane, fixed to a photographing bed and then photographed. During photographing, the respiratory rates and body temperatures of the animal models were measured with an animal monitoring system (SA Instruments, USA).
(§2) The whole body of the animal model was photographed through dual energy X-ray absorptiometry (DEXA) using iNSiGHT VET DXA (Osteosys, KR), and the lean body mass of each of the gastrocnemius muscle (GS) and the tibialis anterior (TA) was measured and calculated from the two-dimensional images of the gastrocnemius muscle (GS) and the tibialis anterior (TA) by a program using the region of interest (ROI).
(§3) At 90 days after the start of the experiment, an exercise stress test was performed. First, the experimental animals in each group were acclimatized to a treadmill machine twice before measurement (1st round: inclination 10°, 10 minutes at 5 m/min and 10 minutes at 10 m/min; 2nd round: inclination 10°, 5 minutes at 5 m/min and 15 munutes at 10 m/min). On the day of the experiment, the experimental animals were allowed to run for 20 minutes at an initial speed of 10 m/min at an inclination of 10°, and then the speed was increased by 2 m/min every 2 minutes, and then the running distance and time were measured with the end point when the experimental animal stayed for 10 seconds without running.
(§4) Statistical processing was performed using GraphPad Prism (GraphPad Software Inc., San Diego, CA, USA). The results of each repeated experiment were expressed as mean±standard error of mean, and analyzed using the analysis of variance (Tukey's test), and statistical significance was acknowledged when the P-value was 0.05 or less.

[2] = system: dexamethasone-induced muscular atrophy animal model; assay: Dexamethasone-induced muscular atrophy animal model (Experimental Example 1); type: in vivo, ICR mice; settings: compared to dexamethasone-treated group (excipient)
Source text: 1-1. Preparation of experimental animals and samples For an experimental group in the present invention, oxiracetam
having a structure of Formula 1 was purchased from Tokyo Chemical Industry (Japan; Product No. 00398, CAS RN:62613-82-5, purity: 96%) and used. As experimental animals, 7-week-old male ICR mice were
as §1, with “purchased and” for “As a model of sarcopenia caused by aging, 22-month-old male C57BL/6J mice were”
After the acclimation period for the experimental animals, to create a muscular atrophy model, the mice were randomly divided into groups of 10 animals, such as a normal group (n=10), a dexamethasone-treated group (n=10), and an oxiracetam-administered group (n=10). The groups except for the normal group were intraperitoneally injected with dexamethasone at a dose of 10 mg/kg from day 7 to day 21 for 14 days. In the case of the oxiracetam-administered group, 7 days before the intraperitoneal administration of dexamethasone, oxiracetam was orally administered using a Zonde needle at a dose of 30 mg/kg/day once a day for 21 days. During the same period, the normal group was administered no drug, and 100 μL of normal saline was orally administered at a time.
The lean body mass for the gastrocnemius muscle (GS) and tibialis anterior (TA) for each group was measured every 7 days. Specifically, animal models of each group were anesthetized using 3% isoflurane, fixed to a photographing bed, and then photographed. The respiration rates and temperatures of the animal models during photographing were measured using an animal monitoring system (SA Instruments, USA).
as §2
To measure grip strength, a grip strength test was performed. […] The grip strength was measured once every 2 days and 11 times for each mouse.
Tibialis anterior diameters (T1) were measured from two-dimensional images captured by dual-energy X-ray absorptiometry (DEXA) for each group and compared.
as §3, with “First,” for “At 90 days after the start of the experiment, an exercise stress test was performed. First,”, “2n d” for “2nd”, “minutes” for “munutes”
as §4

[3] = Oxi 30, Oxi 100, Oxi 300 mg/kg/day oral, DEXA every 7 days, compared to control
[4] = oxiracetam 30 mg/kg/day oral 21 days + dexamethasone, DEXA

NC(=O)CN1CC(O)CC1=O (racemic) [oxiracetam, (RS)-2-(4-hydroxy-2-oxopyrrolidin-1-yl)acetamide]
lean body mass of the gastrocnemius muscle (GS) [1, 3]: increased rather than decreased | lean body mass of the tibialis anterior (TA) [1, 3]: increased rather than decreased | physical performance capacity (athletic ability), treadmill running distance and time ([1]; Oxi 30, Oxi 100, Oxi 300, day 90, compared to control): increased rather than decreased | physical performance capacity (athletic ability), treadmill running distance and time ([1]; Oxi 300 group (300 mg/kg/day), day 90): significantly increased | lean body mass of the gastrocnemius muscle (GS) ([1]; Oxi 300 group (300 mg/kg/day), from week 7): significantly increased | change in grip strength ([1]; oxiracetam 30, 100 and 300 mg/kg/day oral 90 days, versus control (vehicle)): suppressed and rather increased | tibialis anterior (TA) diameter (T1) ([2]; oxiracetam 30 mg/kg/day oral 21 days + dexamethasone 10 mg/kg i.p. day 7-21, DEXA): significantly increased | lean body mass of the gastrocnemius muscle (GS) [2, 4]: the decrease was significantly suppressed | lean body mass of the tibialis anterior (TA) [2, 4]: the decrease was significantly suppressed | grip strength ([2]; oxiracetam 30 mg/kg/day oral 21 days + dexamethasone): significantly increased | exercise stress test (treadmill): athletic ability ([2]; oxiracetam 30 mg/kg/day oral + dexamethasone): significant improvement

— patent publication US20240050406A1, “COMPOSITION COMPRISING OXIRACETAM FOR PREVENTING OR TREATING MUSCULAR DISEASE” (KSB TUGEN INC., priority 2021, published 2024)
